The assay deals with T1, recombinant human 15-PGDH (Homo sapiens, UniProt P15428).
T1 construct: purchased R&D Systems
T1 sequence (P15428 1-266): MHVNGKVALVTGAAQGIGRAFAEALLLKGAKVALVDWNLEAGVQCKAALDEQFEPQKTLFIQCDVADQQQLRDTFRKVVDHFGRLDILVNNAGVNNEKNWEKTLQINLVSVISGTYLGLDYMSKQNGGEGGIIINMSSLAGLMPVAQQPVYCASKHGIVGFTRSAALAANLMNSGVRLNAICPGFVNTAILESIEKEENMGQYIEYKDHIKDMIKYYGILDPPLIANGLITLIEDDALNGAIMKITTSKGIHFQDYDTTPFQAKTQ
The experiment in a line: 15-PGDH enzyme inhibition test. Type of assay: biochemical. Particulars: 4 nM recombinant human 15-PGDH, 30 μM PGE2, 1 mM NAD+, 60 minutes after starting the reaction; read-out: IC50 Value. Summed up: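 Fluorescence (excitation 340 nm, emission 440 nm) measured 60 min after adding 1 mM NAD+ and 30 μM PGE2 to 4 nM recombinant human 15-PGDH, which had stood 12 min at room temperature with compound in pH 8.0 Tris-HCl buffer. Concentration-response curves yield IC50, binned into potency categories.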

The results in this text go back to US12577217B2, “15-PGDH inhibitor” (KYORIN Pharmaceutical Co., Ltd., priority 2019, dated 2026).

Structures are written as SMILES.

For the compound `CCN1Cc2cc(N3CCCc4cc(C(=O)N5CCCC[C@H]5C)cnc43)ccc2C1=O` [Example 8-78], the IC50 is under 10 nM.

Consider `CN1Cc2cc(N3CCCc4cc(C(=O)N5CCCCC5)cnc43)ccc2C1=O` [Example 1-68], for which the half-maximal inhibitory concentration (IC50) is under 10 nM.

With `CN1Cc2cc(N3CCOc4cc(C(=O)N5CCC(F)CC5)cnc43)ccc2C1=O` [Example 8-202], the IC50 is under 10 nM.

As to `O=C(c1ccc2c(c1)OCCN2C1CCCCC1)N1CCCCC1` [Example 8-14], the concentration for half-maximal inhibition (IC50) lay in the range of 10 to 100 nM.

Regarding `CN(CCCCO)C(=O)c1cnc2c(c1)OCCN2c1ccn2c(=O)n(C)nc2c1` [Example 8-177], the IC50 was over 100 nM.

In the case of `CCN1Cc2cc(N3CCCc4cc(C(=O)N5CCC[C@H](C)C5)cnc43)ccc2C1=O` [Example 8-90], the IC50 is under 10 nM.

As for `Cn1nc2cc(N3CCOc4cc(C(=O)N5CCCC6(CC6)C5)cnc43)ccn2c1=O` [Example 8-42], the IC50 was under 10 nM.

Regarding `O=C(c1cnc2c(c1)CCCN2c1ccc2c(=O)[nH]ccc2c1)N1CCCCC1` [Example 1-173], the IC50 was under 10 nM.

For the compound `CNC(=O)c1ccc(N2CCOc3cc(C(=O)N4CCCCC4)cnc32)cn1` [Example 6-22], the IC50 was under 10 nM.

In the case of `Cn1ccc2ccc(N3CCOc4cc(C(=O)N5CCCCC5)cnc43)cc21` [Example 1-91], the IC50 lay within 10 to 100 nM.

Consider `O=C(c1ccc2c(c1)OCCN2c1ccc2c(=O)[nH]cnc2c1)N1CCC(F)(F)CC1` [Example 1-152], for which the IC50 is under 10 nM.

As to `CNC(=O)c1ccc(N2CCCc3cc(C(=O)N4CCC(F)(F)CC4)cnc32)cc1F` [Example 1-175], the IC50 was under 10 nM.

As for `CN1Cc2cc(N3CCOc4cc(C(=O)N5CCc6ccccc6C5)cnc43)ccc2C1=O` [Example 8-192], the IC50 was under 10 nM.

Regarding `COc1c(C(=O)N2CCCCC2)ccc2c1OCCN2c1ccc(C(=O)O)cc1` [Example 2-2], the IC50 was under 10 nM.

Consider `CCc1ccc(N2CCOc3cc(C(=O)N4CCCCC4)cnc32)cc1` [Example 1-244], for which the IC50 lay in the range of 10 to 100 nM.

In the case of `CCn1nc2cc(N3CCCc4cc(C(=O)N5CCCC5)cnc43)ccn2c1=O` [Example 8-148], the IC50 was under 10 nM.

For the compound `C[C@@H]1CCCCN1C(=O)c1cnc2c(c1)OCCN2c1ccn2c(=O)n(C)nc2c1` [Example 8-21], the IC50 is under 10 nM.

Regarding `CCN1Cc2cc(N3CCCc4cc(C(=O)N5CCC(F)CC5)cnc43)ccc2C1=O` [Example 8-86], the IC50 is under 10 nM.

With `Cn1nc2cc(N3CCOc4cc(C(=O)N5[C@@H]6CCC[C@H]5CC6)cnc43)ccn2c1=O` [Example 8-56], the IC50 was under 10 nM.

As for `CCC1CCCN(C(=O)c2cnc3c(c2)OCCN3c2ccn3c(=O)n(C)nc3c2)C1` (centres unmarked) [Example 8-43], the IC50 was under 10 nM.

Turning to `Cn1nc2cc(N3CCOc4cc(C(=O)N5CCCC(C)(F)C5)cnc43)ccn2c1=O` (single isomer, unassigned) [23-2 Isomer B], the IC50 is under 10 nM.

On to `CCOCCn1nc2cc(N3CCCc4cc(C(=O)N5CCC[C@H](CF)C5)cnc43)ccn2c1=O` [Example 1-117], for which the IC50 was under 10 nM.

In the case of `COCCN1Cc2cc(N3CCCc4cc(C(=O)N5CCCCC5)cnc43)ncc2C1=O` [Example 1-72], the IC50 was 10 to 100 nM.

As for `CCOCCN1Cc2cc(N3CCCc4cc(C(=O)N5CCC(F)(F)CC5)cnc43)ccc2C1=O` [Example 1-83], the IC50 is under 10 nM.

For the compound `Cc1cn2ccc(N3CCOc4cc(C(=O)N5CCCCC5)cnc43)cc2n1` [Example 1-26], the IC50 was 10 to 100 nM.

Consider `CCCN1Cc2cc(N3CCCc4cc(C(=O)N5CCCCC5)cnc43)ccc2C1=O` [Example 1-196], for which the IC50 was under 10 nM.

For the compound `Cn1nc2cc(N3CCCc4cc(C(=O)N5CCC[C@@H](C(F)F)C5)cnc43)ccn2c1=O` [Example 8-142], the IC50 was under 10 nM.

For `COC(=O)c1cccc(N2CCOc3cc(C(=O)N4CCCCC4)cnc32)c1` [Example 1-262], the IC50 was under 10 nM.

Turning to `O=C(c1cnc2c(c1)CCCN2c1ccn2c(=O)[nH]nc2c1)N1CCC[C@@H](CF)C1` [Example 1-146], the IC50 was under 10 nM.
